# Results as given in patent US12637430B2, “Interleukin-17 (IL-17) inhibitors” (priority 2020, dated 2026).
# Where two headings read alike, the source gives them in different places.
# Legend:
# [1] = target: T1, human IL-17A (Homo sapiens, UniProt Q16552); assay: IL-17A enzyme-linked immunosorbent assay (competitive ELISA, IL-17A/IL-17R binding)
# T1 construct: purchased Sino Biological Inc. 12047-H07B
# T1 sequence (Q16552 24-155): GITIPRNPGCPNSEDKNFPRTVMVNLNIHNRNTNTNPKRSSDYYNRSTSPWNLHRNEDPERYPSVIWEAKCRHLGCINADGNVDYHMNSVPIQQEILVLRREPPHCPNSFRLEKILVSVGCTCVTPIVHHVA
# Procedure: The inhibition of receptor-ligand binding by human IL-17A inhibitors was quantified by competitive ELISA. 0.2 μg/mL of IL-17A (Sino Biological Inc. Cat #12047-H07B) was added in a 96-well plate at 100 μl per well for incubation for 30 min under 37° C. The 96-well plate was washed with PBST (PBS, 0.05% Tween-20) at 200 μl per well for 4 times, and then added with 200 μl of 5% skim milk and placed on a shaker for incubation at 25° C. for 30 min. The compound to be tested was prepared at 100× concentration ranging from 0.003 μM to 30 μM. After washed with PBST (PBS, 0.05% Tween-20) 4 times, the plate was added with 89 μl of PBST and 1 μl of the compound to be tested at 100× concentration followed by uniformly mixing and pre-incubation at 25° C. for 10 min. Then the plate was added with 10 μl of 16 nM IL-17R, and incubated on a shaker at 25° C. for 30 min. After washed for 4 times, the plate was added with 100 μl of anti-Fc-tag horseradish peroxidase (HRP)-conjugated antibody, and incubated on a shaker at 25° C. for 30 min. After washed 4 times, the plate was added with 100 μl of 3,3′, 5,5″-tetramethylbenzidine (TMB) substrate solution, and incubated at 25° C. in the dark. Then the plate was added with 20% HCl, followed by detection of the light absorption value at a wavelength of 450 nm by a microplate reader. The compounds prepared in the above examples were tested for human IL-17A inhibitory activity according to the above method.
# [2] = target: T2, human IL-17A protein (Homo sapiens, UniProt Q16552); assay: Inhibition of chemokine GROα/CXCL1 generation induced by human IL-17A protein in HT-29 cell; format: cell-based
# T2 construct: purchased R&D 317-ILB
# T2 sequence (Q16552 20-155 limits assumed): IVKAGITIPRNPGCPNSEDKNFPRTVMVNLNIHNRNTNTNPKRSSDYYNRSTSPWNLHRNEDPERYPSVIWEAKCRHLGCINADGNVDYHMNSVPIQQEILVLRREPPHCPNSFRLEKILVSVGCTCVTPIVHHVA
# Procedure: HT-29 (Zhongyuan Gongchuang Technology Co., Ltd. of Chengdu, Sichuan) was added to a 96-well plate at 5×10^4 cells/well, and cultured overnight in a incubator at 37° C. A mixture of 30 ng/mL of human IL-17A protein (R&D, #317-ILB) and IL-17A small molecule inhibitors with gradient concentrations or 0.3 μg/mL of positive control IL-17A antibody (R&D, #AF-317-NA) was incubated at 37° C. for 1 h, and then added to the above-mentioned 96-well plate, and incubated with HT-29 cells at 37° C. for 48 hours. Then the GROα level in the cell culture supernatant was detected by an ELISA kit (Cisbio, #62HCXC1PEG) of the GROα.
# According to the methods described in Experimental Examples 1 and 2, the compounds prepared in the above-mentioned examples were subjected to the experiment on inhibition of chemokine GROα/CXCL1 generation induced by human IL-17A protein in HT-29 cell.
# [3] = Pharmacokinetic properties in mice (intravenous injection/oral gavage); format: in vivo; conditions: oral bioavailability
# Procedure: (§1) In order to investigate the pharmacokinetic properties of the compound in rats, 3 rats were administered with the compounds at corresponding doses by intravenous injection/oral gavage, respectively. The anticoagulated whole blood of the rats were collected and the plasma was separated at 5 min, 15 min, 30 min, 1 h, 2 h, 4 h, 8 h, 24 h after administrated. In order to investigate the pharmacokinetic properties of the compound in mice, 6 mice were administered with the compound at the corresponding dose by intravenous injection/oral gavage. The mice administered by each route were divided into A group and B group. The anticoagulated whole blood was collected from the mice in group A at 5 min, 30 min, 2 h, and 8 h after the administration, and the anticoagulated whole blood was collected from the mice in group B at 15 min, 1 h, 4 h, and 24 h after the administration, and plasma was separated. In order to investigate the pharmacokinetic properties of dogs, two groups of 4 beagle dogs (2 males+2 females) were administered with the compound at corresponding doses by intravenous injection/oral gavage. The anticoagulated whole blood of each dog was collected, and the plasma was separated at 2 h, 4 h, 8 h, 12 h, 24 h, 36 h after the administration.
# (§2) Plasma concentrations of compounds were determined by standard curve calibration by LC-MS. […]
# [4] = Pharmacokinetic properties in rats (intravenous injection/oral gavage); format: in vivo; conditions: oral bioavailability
# Procedure: as §1, §2
# [5] = Pharmacokinetic properties in dogs (intravenous injection/oral gavage); format: in vivo; conditions: oral bioavailability, beagle dogs
# Procedure: as §1, §2
# [6] = test system: cytochrome P450 1A2 (CYP1A2); format: in vitro ADME; conditions: human hepatocytes, 10 μM
# Procedure: In order to evaluate the induction of CYP enzymes in human hepatocytes by the compounds prepared in the above examples at 10 μM, Omeprazole (positive control) and the compound prepared in Example 32 (control compound 2) disclosed in patent application. WO2020/127685A1 were used as controls.
# [7] = test system: imiquimod-induced psoriasis mouse model; assay: Pharmacodynamic test on an imiquimod cream-induced psoriasis model in mice; format: in vivo, C57BL/6N mouse
# Procedure: Each 10-week-old female C57 black 6 (C57BL/6N) mouse was shaved to approximately 2.5×4 cm on the back, which the imiquimod (IMQ, Imiquimod) cream continuously applies from the day 1-4, so as to establish a psoriasis model. Each mouse was administrated with the compound 51 prepared in this application by gavage (3, 10, 30 mg/kg) once a day, and administrated with IL-17A antibody solution by intraperitoneal injection (Ab, 2 mg/kg) every other day, or administrated with dexamethasone solution by intraperitoneal injection (10 mg/kg) once a day. […] On day 1 and day 5 of the experiment, the skin thickness of the mice was measured to investigate the skin thickening induced by IMQ.
# On day 5 of the experiment, the skins of mice in each group were collected, the mRNA expression level of IL6 was detected by quantitative reverse transcription polymerase chain reaction (RT-qPCR) test. […] On day 5 of the experiment, the plasma of mice in each group was collected, and the IL6 protein level was measured.
# On day 5 of the model, the skin samples were collected from the back of each mouse. The samples were fixed in 4% paraformaldehyde, and stained with hematoxylin-eosin (HE) to investigate the protective effect of compound 51 on skin pathological damage.
compound,measurement,setting,value
Cc1n[nH]c(C)c1-c1ncc(NC(=O)[C@@H](NC(=O)c2ccnn2C(C)C)C(C2CC2)C2CC2)cc1F [Compound 51],IC50,[1],42 nM
same,IC50,[2],224 nM
same,F % (Mice),[3],56%
same,F % (Rats),[4],46%
same,F %(Dogs),[5],58%
same,Note 1A2 (CYP1A2 induction),[6],Non-
same,mRNA Expression level % of the positive control 1A2,[6],2.20%
same,mRNA Expression level Fold of induction 1A2,[6],1.26
same,Note 1A2 (CYP1A2 induction),[6]; listed as compound 51,no inducing effect
same,skin thickening induced by IMQ (skin thickness day 1 and day 5),"[7]; compound 51 gavage 3, 10, 30 mg/kg once a day, antibody i.p. 2 mg/kg every other day, FIG. 1B",reversed the skin thickening caused by IMQ at different levels
same,skin pathological damage (HE staining),"[7]; day 5, 3, 10 and 30 mg/kg, FIGS. 2A-G",may inhibit the infiltration and damage of skin inflammatory cells induced by IMQ at different levels
same,mRNA expression level of IL6 in skin (RT-qPCR),"[7]; day 5, gavage 3, 10, 30 mg/kg, FIG. 1C",dependently reversed the up-regulation of IL6 expression level
same,IL6 protein level in plasma,"[7]; day 5, gavage 3, 10, 30 mg/kg, FIG. 1D",dependently inhibited the increase of IL6 protein level in the plasma
same,AUC of the psoriasis area and severity index (PASI) scoring curve (skin inflammation),"[7]; gavage 3, 10, 30 mg/kg once a day, FIG. 1A",reduced the level of skin inflammation induced by IMQ
